Structures are written as SMILES.

For data set [1], the system named is organ slice of cat cerebral cortex. Nature of the data set: inhibition test on cerebral edema using organ slice of cat cerebral cortex (NaHCO3-stimulated swelling). The class given is cell-based. The conditions noted are these: Felis catus, 50 min; gray matter slices, 50 minutes at 37° C., pH 7.4, NaHCO3 as stimulating agent of swelling; read-out: Inhibitory activity on cerebral edema (IC50). On the procedure:
The inhibition test on cerebral edema using organ slice of cat cerebral cortex
The test was carried out by the method described in Journal of Medicinal Chemistry, Vol. 25 (No. 5), 567 (1982).
That is, brain was isolated from a cat (weighing 2≈4 kg), slices of about 1 mm in thickness was prepared, the white matter substance was removed, and the gray matter substance (100≈150 mg a test) was used for a sample. The sample was added to the following incubation medium and incubated for 50 minutes at 37° C. After the incubation, the sample was immediately weighed again to determine the swelling weight of the sample. incubation medium (osmotic pressure, 280≈290 mOsm/l)
1. Hepes Buffer (pH 7.4) . . . 2.365 ml
adjusted to pH 7.4 by NaOH
2. test compounds [dissolved in the presence of tris(hydroxymethyl)aminomethane] or water . . . 0.01 ml
3. 0.2M NaHCO3 . . . 0.125 ml (dissolved by Hepes Buffer, giving the final concentration of 10 mM in medium) […]
(C) A percentage of swelling when a slice sample was added to incubation medium comprising Hepes Buffer, the test compounds in various concentrations and NaHCO3. Above-mentioned (A), (B) and (C) were determined. Inhibition percentage of the test compounds was calculated by the following equation: [formula] IC50 value was determined by dose-response curve as a concentration in which inhibition percentage was 50.

A short description of data set [2]: acute toxicity test in mice by intravenous administration. The conditions noted are these: mouse, in vivo. The procedure: For example, in the acute toxicity test in mice by intravenous administration, LD50 value of compounds of example 1 and 1-(c) is the dose of between 200 and 400 mg/kg.

As to `O=C(O)CC[C@H](NC(=O)[C@H]1CC[C@H](Oc2ccc(C(=O)c3ccccc3)c(Cl)c2Cl)C1)C(=O)O` [Example 1, N-{(1S,3S)-3-(2,3-dichloro-4-benzoylphenoxy)cyclopentanecarbonyl}glutamic acid], the IC50 in data set [1] turned out to be 3000 nM. This molecule also had a 50% lethal dose (LD50) in data set [2] of 200 to 400 mg/kg.

In the case of `C[C@H](NC(=O)[C@H]1CC[C@H](Oc2ccc(C(=O)c3ccccc3)c(Cl)c2Cl)C1)C(=O)O` [1-(c), N-{(1S,3S)-3-(2,3-dichloro-4-benzoylphenoxy)cyclopentanecarbonyl}alanine], in data set [1], the IC50 came to 500 nM. In data set [2], this molecule showed an LD50 of 200 to 400 mg/kg.

Source of the values: patent US4829078A, “3-phenoxy (or phenylthio)--cyclopentanecarbonylamino acid analogues” (Ono Pharmaceutical Co., Ltd., priority 1985, dated 1989).
